In patent US11504439B2, “Radioactive compound for diagnosis of malignant melanoma and use thereof” (INDUSTRY FOUNDATION OF CHONNAM NATIONAL UNIVERSITY, priority 2017, dated 2022):

Legend:
[1] = tested on: B16F10 metastatic foci (lung, liver, lymph node); assay: In vivo distribution and PET imaging in lung/liver metastatic model mice; design: species or system C57BL/6 mice; settings: 60 minutes from administering, lung metastasis model animal
Experimental: In order to examine the in vivo distribution and dynamics of [^18F]DMFB in lung/liver metastatic animal model, the present inventors divided C57BL/6 mice into two groups, one were injected with 1×10^5 cells of B16F10 cell line into the tail vein and the other were not injected with the tumor cells. After 14 days from the tumor cell inoculation, 7.4 MBq of [^18F]DMFB was injected into lung metastatic model mice and normal mice via tail vein, respectively and visualized at 60 min. Likewise, liver metastatic mice prepared by injecting 1×10^5 cells of B16F10 cell line into the tale vein were injected with 7.4 MBq of [^18F]DMFB into the tail vein. After 60 minutes of the administration, micro PET image was obtained. This liver metastatic model mice were produced among mice survived after a certain time after the induction of lung metastasis. Mice survived after the induction lung metastasis have metastasized to the lymph nodes and other organs after time elapse. […] After obtaining the images, the metastatic model mice and normal mice were sacrificed and lung and liver were excised and uptake ratio of the excised lung and liver were measured by a gamma counter. The results were corrected by organ weight and expressed as a percentage of injections per gram of tissue (% ID/g). […]

B16F10 cell line tumor [2] = assay: Body distribution in small animal model of tumor transplantation; assay type: in vivo, nude mice
Experimental: (§1) In order to confirm the in vivo distribution of [^18F]DMFB, experiments were performed on nude mice whose tumor was grown to 100 to 150 mm^3 after about 10 days of injection of the B16F10 cell line into the right shoulder region. [^18F]DMFB was injected into the tail vein of the tumor-bearing mice at a dose of 7.4 MBq and sacrificed at 10, 30, 60, and 120 minutes, respectively to excise tumor tissue, blood and organs, and distribution of the radioactive compound was confirmed. The excised organs were measured by the gamma counter in each of the organs including blood, heart, lung, liver, spleen, stomach, intestine, kidney, pancreas, normal muscle, bone, brain, skin and eyes. The results were corrected by organ weight and expressed as a percentage of injections per gram of tissue (% ID/g).
as §1, with “In addition, in” for “In”, “[^18F]DMPY2 prepared in the example 3-2,” for “[^18F]DMFB,”, “tumors were” for “tumor was”, “[^18F]DMPY2” for “[^18F]DMFB”, “30,” for “30, 60,”, “60” for “120”

Melanin binding assay = assay: Melanin binding assay
Experimental: 0.74 MBq of [^18F] DMFB was reacted with 2 mg of melanin and 10 ml of distilled water for 10, 30, 60, and 120 minutes at 37° C. with stirring. Then, centrifugation was performed at 16,800 rpm for 10 minutes, and […] of the supernatant was measured with a gamma counter. Percentages (%) of [^18F]DMFB bound to melanin were calculated based on the mixture of [^18F]DMFB and distilled water alone without melanin.

[3] = In vitro stability test in human serum; assay type: in vitro ADME; settings: 1.0 ml human serum, 37° C., 2 hours, ITLC-sg / radio TLC
Experimental: For in vitro stability test, 0.74 MBq/100 μl of [^18F] DMFB was dissolved in 1.0 ml human serum and then evaluated at 37° C. for 2 hours. The structural stability was measured by ITLC-sg. ITLC-sg (1×10 cm) was developed using MC:MeOH=10:1. The results were confirmed by radio TLC.

B16F10 cell line tumor [4] = assay: Micro PET imaging using xenograft tumor mouse model; assay type: in vivo, nude mouse; settings: for signals in other organs (micro PET): 1 hour / 60 min after injection
Experimental: To confirm the in vivo dynamics of [^18F]DMFB, B16F10 cell line was injected into the right shoulder region, and about 10 days later, micro PET was performed using a nude mouse bearing tumor ranging in size of 100-150 mm^3. The nude mice were anesthetized with Isoflurane inhalation and then injected with 7.4 MBq of [^18F]DMFB into the tail vein. Static micro PET images were obtained at 10, 30, and 60 minutes after injection of the radioactive compound. Tumor uptake was determined and the images were reconstructed using 3D-ordered subset expectation maximization (3D-OSEM).
In addition, the in vivo dynamics of [^18F] DMPY2 was also analyzed by the same method as described above except that micro PET images were taken at 30 and 60 minutes after injection.

B16F10 melanoma cells = assay: Melanoma cell uptake ratio experiment; assay type: cell-based, mouse
Experimental: B16F10 cell line, a mouse malignant melanoma cell line, was cultured in 5% CO2 in DMEM medium. Twenty-four hours prior to the experiment, cells were plated at 5×10^5 cells/well in 12-well plates and treated with 0.275 mM L-tyrosine-supplemented medium and non-supplemented medium, respectively. Then the cells were treated with 0.74 MBq of [18F]DMFB and incubated at 37° C. for 10, 30, and 60 min, respectively. After washing with PBS twice, the cells were treated with trypsin and the degree of [^18F]DMFB in the cell culture medium and cells in each time group was measured with a gamma counter, respectively. Three experiments were performed for each time group, and the results were expressed as percentage of the amount absorbed by cells versus the amount treated into the plate.

[5] = tested on: lung metastasis of melanoma; assay: Comparison of [^18F]DMPY2 and [^18F]FDG, micro PET in lung metastasis model mice; assay type: in vivo; settings: 1 hour after injection, 7.4 MBq
Experimental: (§2) The present inventors compared the imaging capabilities for melanoma and lung metastasis of the melanoma of [^18F]DMPY2 according to one embodiment of the present invention with the [^18F]FDG which has been used as a PET contrast agent for diagnosing cancer previously.
In addition, after lung metastasis model mice were prepared in the same manner as in Experimental Example 6, 7.4 MBq of [^18F]DMPY2 and [^18F]FDG were injected, respectively, and systemic micro PET images were obtained at 1 hour after the injection.

B16F10 xenograft tumor = assay: Comparison of [^18F]DMPY2 and [^18F]FDG, micro PET in melanoma xenograft model mice; assay type: in vivo; settings: 1 hour after injection, 7.4 MBq
Experimental: as §2
Particularly, melanoma xenograft model mice were prepared in the same manner as in Experimental Example 5, and then 7.4 MBq of [^18F]DMPY2 and [^18F]FDG were injected respectively, and systemic micro PET images were obtained at 1 hour after the injection.

melanoma = settings: cited from earlier work; for detection rate for melanoma: melanoma patients
[6] = with time after injection (10, 30, 60 minutes)

SMILES: CN(C)CCNC(=O)c1ccc([18F])cc1 [[^18F]DMFB, N-(2-(dimethylamino)ethyl)-4-[^18F]fluorobenzamide]
- detection of lung metastatic cancer (micro PET) [1]: possible to detect a lung metastatic cancer
- radioactivity in internal organs (blood, heart, liver, lung, kidney) (B16F10 cell line tumor [2]; 10 minutes after injection, 7.4 MBq tail vein): strong radioactivity was detected
- absorption ratio in stomach, liver, and kidney (B16F10 cell line tumor [2]; 1 hour after injection): relatively low
- absorption ratio in tumor tissues (B16F10 cell line tumor [2]; 1 hour after injection): highest
- radioactivity in the tumor tissue (B16F10 cell line tumor [2]; elapsed time of 2 hours): maintained
- radioactivity in the visceral organs (B16F10 cell line tumor [2]; elapsed time of 2 hours): hardly detected
- binding rate to melanin (Melanin binding assay; 2 mg melanin, 37° C., 10 to 120 minutes): ≥ 85%
- change of melanin binding rate over time (Melanin binding assay; after 120 minutes): did not significantly decrease
- structural stability in human serum [3]: very stable even after 2 hours
- signals in other organs (micro PET) (B16F10 cell line tumor [4]): maintaining signal in other organs
- radiation in the tumor tissue (micro PET) (B16F10 cell line tumor [4]; [6]): maintained
- radioactivity in the liver (micro PET) (B16F10 cell line tumor [4]; [6]): decreased with time
- uptake in B16F10 melanoma cells (B16F10 melanoma cells; L-tyrosine not treated): hardly absorbed
- uptake in B16F10 melanoma cells (B16F10 melanoma cells; medium supplemented with tyrosine (0.275 mM L-tyrosine), 10 to 60 minutes): significantly increased

SMILES: CN(C)CCNC(=O)c1ccc([18F])cn1 [[^18F]DMPY2]
- signal in the metastatic lung (micro PET) [5]: very strong signal
- signals / noise in other organs (micro PET) [5]: little or no noise in other organs except bladder
- absorption ratio in tumor tissues (B16F10 cell line tumor [2]; 1 hour after injection): accumulated most in tumor tissue
- signal in other organs such as kidney (B16F10 cell line tumor [2]; over time to 1 hour after injection): rapidly decreased
- signal in tumor tissue (micro PET) (B16F10 xenograft tumor): clear signal only in tumor tissue
- signal to noise ratio (micro PET) (B16F10 xenograft tumor): very high
- signals in other organs (micro PET) (B16F10 cell line tumor [4]): very weak
- signal in melanoma tumor tissue (micro PET) (B16F10 cell line tumor [4]; 1 hour after injection): clearly observed

SMILES: O=C[C@H]([18F])[C@@H](O)[C@H](O)[C@H](O)CO [[^18F]FDG, F-18-fluoro-deoxyglucose, reference compound]
- signals / noise in other organs (micro PET) [5]: stronger than the lungs
- suitability for diagnosing lung metastasis of melanoma [5]: unsuitable
- identification of metastatic foci with less than 1 cm in diameter (melanoma; lung, liver, and brain): failed to identify
- background noise (micro PET) (B16F10 xenograft tumor): background noise was widespread throughout the whole body
- signal in tumor tissue (micro PET) (B16F10 xenograft tumor): showed a signal in the tumor tissue

SMILES: [11CH3]SCC[C@H](N)C(=O)O [^11C-methionine, L-[methyl-^11C]methionien]
- detection rate for melanoma (melanoma): extremely low

SMILES: N[C@@H](Cc1cc(O)c(O)cc1[18F])C(=O)O [^18F-DOPA, 6-^18F-Fluoro-L-dihydroxyphenylalanine]
- detection rate for melanoma (melanoma): extremely low

SMILES: Cc1cn([C@H]2C[C@H]([18F])[C@@H](CO)O2)c(=O)[nH]c1=O [^18F-FLT, 3′-^18F-fluoro-3′-deoxy-L-thymidine]
- detection rate for melanoma (melanoma): extremely low
